# Assay results taken from the supplement of paper PMC6045584.
# ± gives the standard deviation of the averaged measurements.
# How the values were obtained:
# OSI-906 = compound: C[C@]1(O)C[C@@H](c2nc(-c3ccc4ccc(-c5ccccc5)nc4c3)c3c(N)nccn32)C1 [OSI-906]; experiment: surviving fraction relative to DMSO-only wells; higher = less growth inhibition; details: exposure time: 5 days
# In short: (§1)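 Log-phase tumour cells were seeded at 250–500 per well in 384-well plates and, from 24 hours after seeding, exposed continuously for five days to inhibitors at 0.5, 1, 5, 10, 50, 100, 500 and 1000 nM. Surviving fraction is CellTiter-Glo luminescence normalised to the median of DMSO-only wells. Luminescence was measured after 10 minutes at room temperature, and only lines screened three times with replicate Pearson r >0.7 and median Z' >0.3 were kept.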
# YM155 = compound: COCC[n+]1c2c(n(Cc3cnccn3)c1C)C(=O)c1ccccc1C2=O [YM155]; experiment: as above; details: exposure time: 5 days
# In short: as §1
Test System,surviving fraction (OSI-906; 0.5 nM),surviving fraction (OSI-906; 1 nM),surviving fraction (OSI-906; 5 nM),surviving fraction (OSI-906; 10 nM),surviving fraction (OSI-906; 50 nM),surviving fraction (OSI-906; 100 nM),surviving fraction (OSI-906; 500 nM),surviving fraction (OSI-906; 1000 nM),surviving fraction (YM155; 0.5 nM),surviving fraction (YM155; 1 nM),surviving fraction (YM155; 5 nM),surviving fraction (YM155; 10 nM),surviving fraction (YM155; 50 nM),surviving fraction (YM155; 100 nM),surviving fraction (YM155; 500 nM),surviving fraction (YM155; 1000 nM)
HELA CERVIX,0.971 ± 0.033,0.981 ± 0.054,0.955 ± 0.069,0.88 ± 0.09,1.03 ± 0.035,1.07 ± 0.036,1 ± 0.081,1.01 ± 0.048,0.9905 ± 0.0069,0.966 ± 0.06,0.487 ± 0.0092,0.23 ± 0.0095,0.0242 ± 0.00076,0.021 ± 0.0013,0.0187 ± 0.00058,0.0228 ± 0.00076
MDAMB453 BREAST,1.03 ± 0.03,1.03 ± 0.016,1.077 ± 0.0087,1.06 ± 0.021,1.06 ± 0.051,1.04 ± 0.014,1.02 ± 0.042,0.98 ± 0.035,0.989 ± 0.048,0.949 ± 0.089,0.306 ± 0.021,0.2993 ± 0.0025,0.11 ± 0.0085,0.0773 ± 0.014,0.0533 ± 0.0076,0.057 ± 0.017
CCK81 LARGE INTESTINE,0.782 ± 0.2,0.815 ± 0.089,0.87 ± 0.051,0.784 ± 0.036,0.726 ± 0.17,0.668 ± 0.13,0.414 ± 0.13,0.327 ± 0.058,0.854 ± 0.1,0.82 ± 0.03,0.735 ± 0.076,0.745 ± 0.021,0.674 ± 0.022,0.798 ± 0.073,0.719 ± 0.036,0.801 ± 0.13
HCC202 BREAST,0.918 ± 0.1,0.867 ± 0.2,0.966 ± 0.052,0.8315 ± 0.0035,1.1 ± 0.021,1.07 ± 0.15,0.862 ± 0.18,0.839 ± 0.18,1.19 ± 0.025,1.13 ± 0.014,1.34 ± 0.26,1.31 ± 0.22,0.411 ± 0.17,0.231 ± 0.037,0.0315 ± 0.00071,0.0335 ± 0.0021
HCC70 BREAST,0.861 ± 0.13,1.02 ± 0.099,1.04 ± 0.081,1.02 ± 0.055,1.04 ± 0.018,1.08 ± 0.017,1 ± 0.053,0.924 ± 0.11,1.09 ± 0.1,1.04 ± 0.11,1.01 ± 0.11,0.934 ± 0.069,0.632 ± 0.049,0.515 ± 0.044,0.135 ± 0.023,0.068 ± 0.007
SKBR3 BREAST,0.752 ± 0.012,0.765 ± 0.027,0.814 ± 0.11,0.841 ± 0.0095,1.05 ± 0.11,0.871 ± 0.11,0.786 ± 0.07,0.681 ± 0.062,0.89 ± 0.03,0.849 ± 0.055,0.825 ± 0.024,0.53 ± 0.071,0.0403 ± 0.012,0.0253 ± 0.0067,0.0247 ± 0.0074,0.0243 ± 0.0058
HCC78 LUNG,0.712 ± 0.28,0.809 ± 0.2,0.954 ± 0.15,0.94 ± 0.15,0.801 ± 0.15,0.831 ± 0.13,0.764 ± 0.059,0.842 ± 0.12,0.7 ± 0.12,0.701 ± 0.23,0.457 ± 0.059,0.269 ± 0.062,0.0407 ± 0.0029,0.0247 ± 0.004,0.016,0.0187 ± 0.0025
NOS1 BONE,0.916 ± 0.13,0.944 ± 0.062,1.16 ± 0.49,1 ± 0.15,1 ± 0.059,0.884 ± 0.057,0.465 ± 0.028,0.462 ± 0.029,1.4 ± 0.44,1.03 ± 0.084,0.316 ± 0.034,0.17 ± 0.025,0.0643 ± 0.0076,0.048 ± 0.0062,0.0337 ± 0.0058,0.0323 ± 0.0025
HOS BONE,0.9287 ± 0.0055,0.9223 ± 0.0065,0.939 ± 0.019,0.911 ± 0.014,0.965 ± 0.02,0.963 ± 0.013,0.901 ± 0.013,0.88 ± 0.031,0.923 ± 0.0036,0.503 ± 0.017,0.075 ± 0.0078,0.0527 ± 0.0038,0.0267 ± 0.00058,0.0197 ± 0.00058,0.0193 ± 0.00058,0.0243 ± 0.00058
SCC47 HEADNECK,0.976 ± 0.025,0.952 ± 0.046,1.04 ± 0.069,1.02 ± 0.12,1.091 ± 0.0056,1.07 ± 0.062,1 ± 0.011,1.04 ± 0.11,1.01 ± 0.13,0.998 ± 0.023,0.916 ± 0.087,0.435 ± 0.069,0.0263 ± 0.0025,0.021 ± 0.001,0.0197 ± 0.00058,0.023 ± 0.001
CAL72 BONE,1.009 ± 0.006,1 ± 0.018,0.998 ± 0.049,0.966 ± 0.058,1 ± 0.038,0.98 ± 0.028,0.893 ± 0.048,0.861 ± 0.082,1.05 ± 0.081,1.01 ± 0.097,0.347 ± 0.082,0.202 ± 0.034,0.058 ± 0.005,0.0473 ± 0.0047,0.0423 ± 0.0029,0.054 ± 0.0044
VP229 BREAST,0.856 ± 0.095,0.825 ± 0.078,0.874 ± 0.039,0.9 ± 0.038,0.925 ± 0.1,0.867 ± 0.048,0.767 ± 0.14,0.665 ± 0.11,1.04 ± 0.023,1.03 ± 0.18,0.903 ± 0.17,0.874 ± 0.081,0.265 ± 0.085,0.137 ± 0.0015,0.046 ± 0.01,0.042 ± 0.007
HUO3N1 BONE,0.938 ± 0.09,0.933 ± 0.068,0.948 ± 0.082,0.92 ± 0.053,0.975 ± 0.047,0.88 ± 0.029,0.779 ± 0.031,0.794 ± 0.035,0.984 ± 0.065,1.06 ± 0.015,1.01 ± 0.036,1.06 ± 0.04,0.529 ± 0.14,0.477 ± 0.046,0.137 ± 0.0093,0.0927 ± 0.0065
H23 LUNG,0.902 ± 0.047,0.897 ± 0.044,0.931 ± 0.05,0.904 ± 0.03,0.879 ± 0.031,0.848 ± 0.061,0.662 ± 0.016,0.607 ± 0.03,0.78 ± 0.053,0.822 ± 0.056,0.125 ± 0.014,0.113 ± 0.003,0.0233 ± 0.0021,0.02 ± 0.0017,0.0163 ± 0.0011,0.0227 ± 0.0015
MDAMB436 BREAST,0.805 ± 0.047,0.875 ± 0.055,0.887 ± 0.17,0.828 ± 0.054,0.948 ± 0.11,0.89 ± 0.068,0.985 ± 0.15,0.855 ± 0.12,0.932 ± 0.065,0.929 ± 0.14,0.744 ± 0.13,0.556 ± 0.099,0.195 ± 0.05,0.115 ± 0.031,0.0377 ± 0.0074,0.0453 ± 0.013
